Results on one substance are retold here after US4547369A, “Antiviral agent” (Cabinet Harle & Phelip, priority 1973, dated 1985).

This test relates to EMC virus, strain VR 125. Description: HPA 23 and murine interferon in EMC infected mice. The class given is in vivo. As to conditions: no HPA 23. The source says:
Synergism occurs between HPA 23 and murine interferon to combat viral infections in mice.
*Number of survival mice on inoculated mice
**range of death for dead mice

[1] abbreviates: Interferon 1:3 25.000 I.U./mouse i.p.
Where [2] appears, read: Interferon 1:9 8.000 I.U./mouse i.p.
Where [3] appears, read: Interferon undiluted 75.000 I.U./mouse i.p.
Setting [4] is: Interferon undiluted 75.000 I.U./mouse i.v.

Take Interferon: the “Number of survival mice on inoculated mice” value is, setting by setting: under setting [1], 3/10; under setting [2], 1/10; under setting [3], 5/10; under setting [4], 6/10. Also, the “range of death for dead mice” value under setting [1] amounted to 5.5 ± 3.0 days, the “range of death for dead mice” value under setting [2] was found to be 4.4 ± 2.1 days, the “range of death for dead mice” value under setting [3] is 7.1 ± 3.1 days and the “range of death for dead mice” value under setting [4] is listed as 7.7 ± 2.9 days.
